Reference: patent US20100035755A1, “METHOD OF CONTROLLING WEEDS IN A TURF GRASS BY USING SULFONYLUREA COMPOUNDS” (Moghu Research Center Ltd., priority 2008, published 2010)
Entries after “also recorded” stand apart in the source; their conditions may differ.

How the values were obtained:
Zoysia japonica = test: Turf grass selectivity, greenhouse pot test; type: in vivo; conditions: for phytotoxicity (visual assessment 0-10): Zoysia japonica
Summary of the method: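 Turf mats transplanted to pots of sandy loam/top soil (1:1), mown weekly to 0.5-1.0 cm and grown one month in greenhouse (25˜30° C. day, 15˜25° C. night). Test chemicals sprayed at 400, 200, 100, 50, 25, 12, 6, 3 g ai/ha in 2,000 L/ha tap-water dilution; three replicates, randomised, averaged.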

Bentgrass = test: Turf grass selectivity, greenhouse pot test; type: in vivo, Agrostris palustris
Source text: Turf mats of Zoysia grass, bentgrass, Kentucky bluegrass, or perennial rye grass known as cool season turfgrass or western grass were purchased and cut into a piece having 10 cm×20 cm size. Then, each piece was transplanted in a rectangular plastic pot (surface area of 300 cm^2) in which sandy loam and mixed top soil (Boo-Nong Top Soil No. 3, for horticultural use) are filled in 1:1 ratio. After the transplantation, the grasses were cut once a week to maintain the blade height at 0.5-1.0 cm and cultivated for one month in a green house of which temperature was kept at 25˜30° C. for daytime and 15˜25° C. for nighttime, respectively. Then, the ‘test chemical’ of the above Examples 1 and 2 or ‘control chemical’ was applied thereto in an amount of 400, 200, 100, 50, 25, 12, 6, 3 g ai/ha. As a “control chemical”, pyrazolsulfuron ethyl wettable agent (manufactured by Dongbu Fine Chemicals; herein after, referred to as ‘control chemical No. 1’) and flazasulfuron (manufactured by Dongbu HiTek; herein after, referred to as ‘control chemical No. 2’), both sulfonylurea herbicides for a turf grass, were used. Application was carried out by using a track sprayer (R&D Sprayer, USA) equipped with Teejet 8002 nozzle (Spraying Systems Co., USA), and the application amount was adjusted to 2,000 L/ha, which is a typical application amount for a golf course in Korea. Application solution was prepared by diluting the “test chemical” or the “control chemical” with tap water. […] The test was repeated three times in a random arrangement and the results are given in average value of each test (see Table 2 below).

Dandelion = test: Weed spectrum, greenhouse pot test; type: in vivo; conditions: two weeks after application
Viola arvensis = test: Actual field condition test of Example 2 (turf grass field); type: in vivo; conditions: 50 g ai/ha
Experimental: The test chemical of the Example 2 was applied to a turf grass field, in which Viola arvensis as a representative hard-to-control perennial weed is thriving predominantly, to evaluate a weed control effect of the compound. The experiment was carried out from May to June, 2007 in the turf grass field within Korea Research Institute of Bioscience and Biotechnology (52, Ueun-dong, Yusong-gu, Daejon, South Korea). Fourteen days after the chemical application, the turf grass was cut once.

cool season turfgrass = test: Turf grass selectivity, summary for cool season turfgrass; type: in vivo
Source text: Turf mats of Zoysia grass, bentgrass, Kentucky bluegrass, or perennial rye grass known as cool season turfgrass or western grass were purchased and cut into a piece having 10 cm×20 cm size. Then, each piece was transplanted in a rectangular plastic pot (surface area of 300 cm^2) in which sandy loam and mixed top soil (Boo-Nong Top Soil No. 3, for horticultural use) are filled in 1:1 ratio. After the transplantation, the grasses were cut once a week to maintain the blade height at 0.5-1.0 cm and cultivated for one month in a green house of which temperature was kept at 25˜30° C. for daytime and 15˜25° C. for nighttime, respectively. Then, the ‘test chemical’ of the above Examples 1 and 2 or ‘control chemical’ was applied thereto in an amount of 400, 200, 100, 50, 25, 12, 6, 3 g ai/ha. As a “control chemical”, pyrazolsulfuron ethyl wettable agent (manufactured by Dongbu Fine Chemicals; herein after, referred to as ‘control chemical No. 1’) and flazasulfuron (manufactured by Dongbu HiTek; herein after, referred to as ‘control chemical No. 2’), both sulfonylurea herbicides for a turf grass, were used. Application was carried out by using a track sprayer (R&D Sprayer, USA) equipped with Teejet 8002 nozzle (Spraying Systems Co., USA), and the application amount was adjusted to 2,000 L/ha, which is a typical application amount for a golf course in Korea. […]

warm season turf grass = conditions: background statement; zoysiagrass, Burmudagrass; cited from earlier work
cool season turf grass = conditions: background statement; creeping bentgrass, Kentucky bluegrass; cited from earlier work

## COc1nc(C)nc(NC(=O)NS(=O)(=O)c2cscc2C2(CF)OCCO2)n1 [Example 2, 3-(2-fluoromethyl-1,3-dioxalan-2-yl)-N-[(4-methoxy-6-methyltriazin-2-yl)aminocarbonyl]4-thiophene sulfonamide]
Zoysia japonica; 100 g ai/ha or less
  safety to Zoysia japonica: high safety
Zoysia japonica; 3 g ai/ha, 2 weeks
  phytotoxicity (visual assessment 0-10): 0
Zoysia japonica; 3 g ai/ha, 4 weeks
  phytotoxicity (visual assessment 0-10): 0
Zoysia japonica; 6 g ai/ha, 2 weeks
  phytotoxicity (visual assessment 0-10): 0
Zoysia japonica; 6 g ai/ha, 4 weeks
  phytotoxicity (visual assessment 0-10): 0
Zoysia japonica; 12 g ai/ha, 2 weeks
  phytotoxicity (visual assessment 0-10): 0
Zoysia japonica; 12 g ai/ha, 4 weeks
  phytotoxicity (visual assessment 0-10): 0
Zoysia japonica; 25 g ai/ha, 2 weeks
  phytotoxicity (visual assessment 0-10): 0
Zoysia japonica; 25 g ai/ha, 4 weeks
  phytotoxicity (visual assessment 0-10): 0
Zoysia japonica; 50 g ai/ha, 2 weeks
  phytotoxicity (visual assessment 0-10): 0
Zoysia japonica; 50 g ai/ha, 4 weeks
  phytotoxicity (visual assessment 0-10): 0
Zoysia japonica; 100 g ai/ha, 2 weeks
  phytotoxicity (visual assessment 0-10): 1
Zoysia japonica; 100 g ai/ha, 4 weeks
  phytotoxicity (visual assessment 0-10): 0
Zoysia japonica; 200 g ai/ha, 2 weeks
  phytotoxicity (visual assessment 0-10): 2
Zoysia japonica; 200 g ai/ha, 4 weeks
  phytotoxicity (visual assessment 0-10): 1
Zoysia japonica; 400 g ai/ha, 2 weeks
  phytotoxicity (visual assessment 0-10): 4
Zoysia japonica; 400 g ai/ha, 4 weeks
  phytotoxicity (visual assessment 0-10): 3
Bentgrass; 3 g ai/ha, 2 weeks
  phytotoxicity (visual assessment 0-10): 3
Bentgrass; 3 g ai/ha, 4 weeks
  phytotoxicity (visual assessment 0-10): 1
Bentgrass; 6 g ai/ha, 2 weeks
  phytotoxicity (visual assessment 0-10): 5
Bentgrass; 6 g ai/ha, 4 weeks
  phytotoxicity (visual assessment 0-10): 3
Bentgrass; 12 g ai/ha, 2 weeks
  phytotoxicity (visual assessment 0-10): 7
Bentgrass; 12 g ai/ha, 4 weeks
  phytotoxicity (visual assessment 0-10): 5
Bentgrass; 25 g ai/ha, 2 weeks
  phytotoxicity (visual assessment 0-10): 10
Bentgrass; 25 g ai/ha, 4 weeks
  phytotoxicity (visual assessment 0-10): 10
Bentgrass; 50 g ai/ha, 2 weeks
  phytotoxicity (visual assessment 0-10): 10
Bentgrass; 50 g ai/ha, 4 weeks
  phytotoxicity (visual assessment 0-10): 10
Bentgrass; 100 g ai/ha, 2 weeks
  phytotoxicity (visual assessment 0-10): 10
Bentgrass; 100 g ai/ha, 4 weeks
  phytotoxicity (visual assessment 0-10): 10
Bentgrass; 200 g ai/ha, 2 weeks
  phytotoxicity (visual assessment 0-10): 10
Bentgrass; 200 g ai/ha, 4 weeks
  phytotoxicity (visual assessment 0-10): 10
Bentgrass; 400 g ai/ha, 2 weeks
  phytotoxicity (visual assessment 0-10): 10
Bentgrass; 400 g ai/ha, 4 weeks
  phytotoxicity (visual assessment 0-10): 10
Dandelion; Post-emergence, 12 g ai/ha
  efficacy (0-100 scale): 90
Dandelion; Post-emergence, 25 g ai/ha
  efficacy (0-100 scale): 90
Dandelion; Post-emergence, 50 g ai/ha
  efficacy (0-100 scale): 100
Dandelion; Post-emergence, 100 g ai/ha
  efficacy (0-100 scale): 100
Dandelion; Pre-emergence, 12 g ai/ha
  efficacy (0-100 scale): 90
Dandelion; Pre-emergence, 25 g ai/ha
  efficacy (0-100 scale): 90
Dandelion; Pre-emergence, 50 g ai/ha
  efficacy (0-100 scale): 100
Dandelion; Pre-emergence, 100 g ai/ha
  efficacy (0-100 scale): 100
Viola arvensis; After 7 days
  Effect on Viola arvensis: 20
Viola arvensis; After 14 days
  Effect on Viola arvensis: 50
Cool season turfgrass; 25 g ai/ha or more
  phytotoxicity to cool season turfgrass: completely withered

## COc1cc(OC)nc(NC(=O)NS(=O)(=O)c2ncccc2C(F)(F)F)n1 [Control chemical No. 2, Flazasulfuron, reference compound]
Zoysia japonica; 50 g ai/ha or less
  safety to Zoysia japonica: safe
Zoysia japonica; 3 g ai/ha, 2 weeks
  phytotoxicity (visual assessment 0-10): 0
Zoysia japonica; 3 g ai/ha, 4 weeks
  phytotoxicity (visual assessment 0-10): 0
Zoysia japonica; 6 g ai/ha, 2 weeks
  phytotoxicity (visual assessment 0-10): 0
Zoysia japonica; 6 g ai/ha, 4 weeks
  phytotoxicity (visual assessment 0-10): 0
Zoysia japonica; 12 g ai/ha, 2 weeks
  phytotoxicity (visual assessment 0-10): 0
Zoysia japonica; 12 g ai/ha, 4 weeks
  phytotoxicity (visual assessment 0-10): 0
Zoysia japonica; 25 g ai/ha, 2 weeks
  phytotoxicity (visual assessment 0-10): 0
Zoysia japonica; 25 g ai/ha, 4 weeks
  phytotoxicity (visual assessment 0-10): 0
Zoysia japonica; 50 g ai/ha, 2 weeks
  phytotoxicity (visual assessment 0-10): 1
Zoysia japonica; 50 g ai/ha, 4 weeks
  phytotoxicity (visual assessment 0-10): 1
Zoysia japonica; 100 g ai/ha, 2 weeks
  phytotoxicity (visual assessment 0-10): 2
Zoysia japonica; 100 g ai/ha, 4 weeks
  phytotoxicity (visual assessment 0-10): 2
Zoysia japonica; 200 g ai/ha, 2 weeks
  phytotoxicity (visual assessment 0-10): 4
Zoysia japonica; 200 g ai/ha, 4 weeks
  phytotoxicity (visual assessment 0-10): 3
Zoysia japonica; 400 g ai/ha, 2 weeks
  phytotoxicity (visual assessment 0-10): 7
Zoysia japonica; 400 g ai/ha, 4 weeks
  phytotoxicity (visual assessment 0-10): 6
Bentgrass; 3 g ai/ha, 2 weeks
  phytotoxicity (visual assessment 0-10): 10
Bentgrass; 3 g ai/ha, 4 weeks
  phytotoxicity (visual assessment 0-10): 10
Bentgrass; 6 g ai/ha, 2 weeks
  phytotoxicity (visual assessment 0-10): 10
Bentgrass; 6 g ai/ha, 4 weeks
  phytotoxicity (visual assessment 0-10): 10
Bentgrass; 12 g ai/ha, 2 weeks
  phytotoxicity (visual assessment 0-10): 10
Bentgrass; 12 g ai/ha, 4 weeks
  phytotoxicity (visual assessment 0-10): 10
Bentgrass; 25 g ai/ha, 2 weeks
  phytotoxicity (visual assessment 0-10): 10
Bentgrass; 25 g ai/ha, 4 weeks
  phytotoxicity (visual assessment 0-10): 10
Bentgrass; 50 g ai/ha, 2 weeks
  phytotoxicity (visual assessment 0-10): 10
Bentgrass; 50 g ai/ha, 4 weeks
  phytotoxicity (visual assessment 0-10): 10
Bentgrass; 100 g ai/ha, 2 weeks
  phytotoxicity (visual assessment 0-10): 10
Bentgrass; 100 g ai/ha, 4 weeks
  phytotoxicity (visual assessment 0-10): 10
Bentgrass; 200 g ai/ha, 2 weeks
  phytotoxicity (visual assessment 0-10): 10
Bentgrass; 200 g ai/ha, 4 weeks
  phytotoxicity (visual assessment 0-10): 10
Bentgrass; 400 g ai/ha, 2 weeks
  phytotoxicity (visual assessment 0-10): 10
Bentgrass; 400 g ai/ha, 4 weeks
  phytotoxicity (visual assessment 0-10): 10
Dandelion; Post-emergence, 12 g ai/ha
  efficacy (0-100 scale): 10
Dandelion; Post-emergence, 25 g ai/ha
  efficacy (0-100 scale): 30
Dandelion; Post-emergence, 50 g ai/ha
  efficacy (0-100 scale): 40
Dandelion; Post-emergence, 100 g ai/ha
  efficacy (0-100 scale): 50
Dandelion; Pre-emergence, 12 g ai/ha
  efficacy (0-100 scale): 30
Dandelion; Pre-emergence, 25 g ai/ha
  efficacy (0-100 scale): 40
Dandelion; Pre-emergence, 50 g ai/ha
  efficacy (0-100 scale): 50
Dandelion; Pre-emergence, 100 g ai/ha
  efficacy (0-100 scale): 70
Viola arvensis; After 7 days
  Effect on Viola arvensis: 20
Viola arvensis; After 14 days
  Effect on Viola arvensis: 50
Cool season turfgrass; application amount as low as 3 g ai/ha
  phytotoxicity to cool season turfgrass: complete withering; also recorded: completely withered
Warm season turf grass
  safety to warm season turf grass: have a safety
Cool season turf grass
  safety to cool season turf grass: no safety
